From patent publication US7893284B2 (Sterix Limited, priority 2004, dated 2011) come the findings set out here.

SMILES strings stand for the structures. Read-outs that look alike come from different tables or passages of the source.

Broadly, the IC50 is the concentration that inhibits the measured activity by half.

The test system of one assay is MCF-7 cells. The assay is described as follows: Cell proliferation, microtiter plate assay (Cell Titer 96), MCF-7. Type of assay: cell-based. The protocol: The effect of drugs on the proliferation of cells was measured using a microtiter plate assay (Cell Titer 96 proliferation assay, Promega, Hampshire, UK).
Assay [1] deals with human umbilical vein endothelial cells (HUVECs). Nature of the assay: Tubule formation, Angiogenesis kit, co-culture of HUVECs and dermal fibroblasts. The following applies: 0.05 μM and 0.1 μM, FIG. 7. Type of assay: cell-based. The protocol: The effects of drugs on tubule formation (measured as a marker of their anti-angiogenic potential) was assessed using an Angiogenesis kit (TCS-Cellworks Ltd (Bucks, UK). For this, human umbilical vein endothelial cells (HUVECs) were cultured in a 24-well plate within a matrix of human diploid fibroblasts of dermal origin. The co-cultured cells were incubated throughout the experiment at 37° C. under 5% CO2 in a humidified incubator. On day 1, the culture medium was removed and replaced with medium containing the drugs under investigation. On days 4, 7 and 9, the medium was replaced with fresh medium containing the drugs under investigation. On day 11, the cells were washed with PBS and 70% ethanol (1 ml) added to each well for 30 min to fix the cells. After fixation, the cells were washed with blocking buffer (1 ml PBS+1% bovine serum albumin, Sigma, UK) and stained with either von Willebrand's factor or CD31. The extent of tubule formation was quantified by manual scoring or by computer analysis. Images were captured using a Kodak DC120 digital camera. In addition, details of changes in tubule formation induced by drugs were also recorded by high definition scanning of plates with some of the scans being presented as Photoshop processed images.
In this assay, the ability of STX641 (and related compounds) to act as an inhibitor of angiogenesis was examined using a co-culture of HUVECs and dermal fibroblasts. In this system, the endothelial cells initially form small islands within the fibroblast matrix. They subsequently proliferate and enter a migratory phase during which they move through the matrix to form thread-like tubule structures. These coalesce to form a network of anastomosing tubules. In FIG. 5, for untreated (control) co-cultures of HUVECs and dermal fibroblasts, the thread-like nature of the extensive tubule network is clearly visible. […] In FIG. 6, plates have been recorded by high definition scanning and also processed to give pixalated images.

The subject of another assay is Tubulin. Nature of the assay: Inhibition of taxol-induced microtubule polymerization (turbidity at 350 nm). The format is biochemical. Conditions: 20 μM, tubulin 1 mg/ml, FIG. 3. The protocol: The ability of drugs to inhibit taxol-induced polymerisation of tubulin was measured by turbidity at 350 nm. Tubulin (Cryoskeleton Inc., Denver, Colo.), at a final concentration of 1 mg/ml was incubated at 32° C. in G-PEM buffer [80 mM piperazine-N,N′-bis (2-ethane sulfonic acid) sequisodium salt, 1 mM MgCl2, 1 mM EGTA and 1 mM GTP (pH 6.8)] in the presence of taxol with or without estrone derivatives [20 μM].
STX641 is thought to act as an anti-microtubule agent, i.e. to disrupt microtubule function. To show this, tubulin was incubated in the presence of taxol (a compound known to promote tubulin polymerisation). Taxol induced efficient in vitro microtubule assembly as reflected in the increase in turbidity as measured at 350 nm.

In assay [2] the target is T1, Placental Microsomal Steroid Sulphatase (Homo sapiens, UniProt P08842).
T1 construct: Sulphatase-positive human placenta from normal term pregnancies are thoroughly minced with scissors; from tissue; host or cells: human term placenta (2000 g supernatant of homogenate)
T1 sequence (P08842 22-583): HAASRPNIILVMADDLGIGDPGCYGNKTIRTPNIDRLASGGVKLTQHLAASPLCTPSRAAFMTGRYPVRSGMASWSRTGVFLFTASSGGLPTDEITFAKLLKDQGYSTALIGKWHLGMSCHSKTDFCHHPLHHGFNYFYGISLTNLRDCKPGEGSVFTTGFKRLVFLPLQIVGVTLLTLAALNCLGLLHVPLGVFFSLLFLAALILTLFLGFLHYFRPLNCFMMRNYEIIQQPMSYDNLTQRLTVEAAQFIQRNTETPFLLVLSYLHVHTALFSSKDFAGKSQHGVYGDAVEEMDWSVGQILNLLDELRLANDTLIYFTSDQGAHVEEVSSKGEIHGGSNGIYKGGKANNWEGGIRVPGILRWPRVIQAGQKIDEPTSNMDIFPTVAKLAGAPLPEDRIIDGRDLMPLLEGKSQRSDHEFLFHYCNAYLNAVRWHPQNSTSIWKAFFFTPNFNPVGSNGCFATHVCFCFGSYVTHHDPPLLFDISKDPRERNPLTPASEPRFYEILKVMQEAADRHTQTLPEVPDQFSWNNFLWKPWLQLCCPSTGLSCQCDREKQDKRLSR
The assay is described as follows: Inhibition of steroid sulphatase activity in placental microsomes (Protocol 2). Type of assay: biochemical. The protocol: Assay for Determining STS Activity Using Placental Microsomes (Protocol 2)
Inhibition of Steroid Sulphatase Activity in Placental Microsomes
Sulphatase-positive human placenta from normal term pregnancies are thoroughly minced with scissors and washed once with cold phosphate buffer (pH 7.4, 50 mM) then re-suspended in cold phosphate buffer (5 ml/g tissue). Homogenisation is accomplished with an Ultra-Turrax homogeniser, using three 10 second bursts separated by 2 minute cooling periods in ice. Nuclei and cell debris are removed by centrifuging (4° C.) at 2000 g for 30 minutes and portions (2 ml) of the supernatant are stored at […] The protein concentration of the supernatants is determined by the method of Bradford (Anal. Biochem., 72, 248-254 (1976)).
. The mixture is shaken thoroughly for 30 seconds with toluene (5 ml). Experiments have shown that >90% [14C]oestrone and <0.1% [3H]oestrone-3-sulphate is removed from the aqueous phase by this treatment. A portion (2 ml) of the organic phase was removed, evaporated and the 3H and 14C content of the residue determined by scintillation spectrometry. The mass of oestrone-3-sulphate hydrolysed is calculated from the 3H counts obtained (corrected for the volumes of the medium and organic phase used, and for recovery of [14C]oestrone added) and the specific activity of the substrate.

Assay [3] deals with MCF-7 Breast Cancer Cells. Nature of the assay: Flow cytometric cell cycle analysis, MCF-7. The format is cell-based. Conditions: 500 nM. The protocol: Flow cytometric cell cycle analysis was performed on 40% confluent populations of MCF-7s with 500 nM of compound.
(In general: Flow cytometry measures light scatter and fluorescence of single cells or particles in a stream.)

The mark [4] stands for this setting: Homo sapiens, MCF7, read-out: IC50 in μM for the growth inhibition of MCF-7 cells.
Setting [5] is: read-out: IC50 in μM for the growth inhibition of MCF-7 cells.

For `CCOC(=O)/C=C1\CCC2C3CCc4cc(O)c(CC)cc4C3CC[C@]12C` (some centres unmarked) [Compound 14b, Z- and E-(2-Ethyl-3-hydroxy-13-methyl-6,7,8,9,11,12,13,14,15,16-decahydro-cyclopenta[a]phenanthren-17-ylidene)acetic acid ethyl ester], in the assay on MCF-7 cells (setting [4]), the IC50 was 31.1 µM.
On to `CCc1cc2c(cc1OS(N)(=O)=O)CCC1C2CC[C@@]2(C)C1CC[C@@H]2CC#N` (some centres unmarked) [Compound 28, Sulfamic acid 17-cyanomethyl-2-ethyl-13-methyl-7,8,9,11,12,13,14,15,16,17-decahydro-6H-cyclopenta[a]phenanthren-3-yl ester], for which, in assay [1], the “inhibition of tubule formation quantified by computer analysis” value is “completely inhibited tubule formation”. Besides, the “inhibition of taxol-induced polymerisation of tubulin” value (from here on “inhibition … of tubulin”) in the assay on Tubulin is “effectively blocked tubulin assembly”.
As to `CCc1cc2c(cc1O)CCC1C2CC[C@]2(C)/C(=C\CO)CCC12` (some centres unmarked) [Compound 17a, Z- and E-2-Ethyl-17-(2-hydroxy-ethylidene)-13-methyl-7,8,9,11,12,13,14,15,16,17-decahydro-6H-cyclopenta[a]phenanthren-3-ol], the IC50 with MCF-7 cells (setting [4]) came out at 0.67 µM.
Take `CCOC(=O)/C=C1\CCC2C3CCc4cc(OS(N)(=O)=O)c(CC)cc4C3CC[C@]12C` (stereo in doubt) [Compound 15, (2-Ethyl-13-methyl-3-sulfamoyloxy-6,7,8,9,11,12,13,14,15,16-decahydro-cyclopenta[a]phenanthren-17-ylidene)-acetic acid ethyl ester]: in the assay with MCF-7 cells (setting [4]), the half-maximal inhibitory concentration (IC50) came out at 1.85 µM.
For the molecule `CCc1cc2c(cc1O)CC[C@@H]1[C@@H]2CC[C@]2(C)[C@@H](OS(C)(=O)=O)CC[C@@H]12` [Compound 59, 2-Ethyl-17-O-mesyl estradiol], the IC50 in the assay with MCF-7 cells (setting [5]) was 5.58 µM.
With `CCc1cc2c(cc1OS(N)(=O)=O)CC[C@@H]1[C@@H]2CC[C@]2(C)[C@@H](OS(C)(=O)=O)CC[C@@H]12` [Compound 60, 2-Ethyl-3-O-sulfamoyl-17-O-mesyl estradiol], the IC50 is over 10 µM in assay [2] and 0.09 µM in the assay on MCF-7 cells (setting [4]).
`COCCOC1CCC2C3CCc4cc(O)c(OC)cc4C3CCC12C` (centres unmarked) [Compound 51, 2-Methoxy-17-(2-methoxy-ethoxy)-13-methyl-7,8,9,11,12,13,14,15,16,17-decahydro-6H-cyclopenta[a]phenanthren-3-ol]: the IC50 in the assay with MCF-7 cells (setting [4]) was found to be 6.02 µM.
Same read-out and setting: to `CCOC(=O)C[C@H]1CCC2C3CCc4cc(OS(N)(=O)=O)c(CC)cc4C3CC[C@@]21C` (stereo in doubt) [Compound 23, (2-Ethyl-13-methyl-3-sulfamoyloxy-7,8,9,11,12,13,14,15,16,17-decahydro-6H-cyclopenta[a]phenanthren-17-yl)-acetic acid ethyl ester] belongs 4.19 µM.
Still for that read-out and setting: to `CCOC(=O)/C=C1/CCC2C3CCc4cc(O)c(CC)cc4C3CC[C@]12C` (some centres unmarked) [Compound 14a, Z- and E-(2-Ethyl-3-hydroxy-13-methyl-6,7,8,9,11,12,13,14,15,16-decahydro-cyclopenta[a]phenanthren-17-ylidene)acetic acid ethyl ester] belongs 30.6 µM; to `CCc1cc2c(cc1O)CCC1C2CC[C@@]2(C)C1CC[C@@H]2CC#N` (some centres unmarked) [Compound 27, (2-Ethyl-3-hydroxy-13-methyl-7,8,9,11,12,13,14,15,16,17-decahydro-6H-cyclopenta[a]phenanthren-17-yl)-acetonitrile], 3.24 µM.
With `COc1cc2c(cc1O)CCC1C2CCC2(C)C(=CC#N)CCC12` (centres unmarked) [Compound 30, Z- and E-(3-Hydroxy-2-methoxy-13-methyl-6,7,8,9,11,12,13,14,15,16-decahydro-cyclopenta[a]phenanthren-17-ylidene)-acetonitrile], in the assay on MCF-7 cells (setting [5]), the IC50 amounted to 3.22 µM.
As for `CCc1cc2c(cc1O)CCC1C2CC[C@@]2(C)C1CC[C@@H]2CCO` (some centres unmarked) [Compound 19, 2-Ethyl-17-(2-hydroxy-ethyl)-13-methyl-7,8,9,11,12,13,14,15,16,17-decahydro-6H-cyclopenta[a]phenanthren-3-ol], the IC50 in the assay on MCF-7 cells (setting [4]) came out at 2.52 µM.
Take `CCOC(=O)C[C@H]1CCC2C3CCc4cc(O)c(CC)cc4C3CC[C@@]21C` (stereo in doubt) [Compound 22, (2-Ethyl-3-hydroxy-13-methyl-7,8,9,11,12,13,14,15,16,17-decahydro-6H-cyclopenta[a]phenanthren-17-yl)-acetic acid ethyl ester]: in the assay on MCF-7 cells (setting [4]), the IC50 was 26.4 µM.
On the same count and under the same terms, the result for `CCc1cc2c(cc1OS(N)(=O)=O)CCC1C2CC[C@@]2(C)C1CC[C@@H]2CCOS(N)(=O)=O` (some centres unmarked) [Compound 20, Sulfamic acid 2-ethyl-13-methyl-17-(2-sulfamoyloxy-ethyl)-7,8,9,11,12,13,14,15,16,17-decahydro-6H-cyclopenta[a]phenanthren-3-yl ester] reads 5.64 µM.
With `CCc1cc2c(cc1O)CCC1C2CC[C@@]2(C)C1CC[C@@H]2CC#N` (stereo in doubt) [Compound 27, (2-Ethyl-3-hydroxy-13-methyl-7,8,9,11,12,13,14,15,16,17-decahydro-6H-cyclopenta[a]phenanthren-17-yl)-acetonitrile], the “inhibition … of tubulin” value with Tubulin is “effectively blocked tubulin assembly”.
On to `CCc1cc2c(cc1O)CCC1C2CC[C@]2(C)/C(=C/CO)CCC12` (some centres unmarked) [Compound 17b, Z- and E-2-Ethyl-17-(2-hydroxy-ethylidene)-13-methyl-7,8,9,11,12,13,14,15,16,17-decahydro-6H-cyclopenta[a]phenanthren-3-ol], for which the half-inhibitory concentration (IC50) in the assay on MCF-7 cells (setting [4]) amounted to 0.77 µM.
For the molecule `COc1cc2c(cc1O)CCC1C2CC[C@@]2(C)C1CC[C@@H]2CC#N` (stereo in doubt) [Compound 32, (3-Hydroxy-2-methoxy-13-methyl-7,8,9,11,12,13,14,15,16,17-decahydro-6H-cyclopenta[a]phenanthren-17-yl)-acetonitrile], the “G2/M arrest (cells in G2/M)” value in assay [3] (8 h, control 16%) was 27%. Moreover, the “cells G2/M arrested” value in assay [3] (24 h, control 28%) was found to be 18%. In addition, the “inhibition … of tubulin” value with Tubulin was “effectively blocked tubulin assembly”. The IC50 in the assay on MCF-7 cells (setting [4]) amounted to 0.3 µM.
On to `COc1cc2c(cc1O)CCC1C2CC[C@@]2(C)C1CC[C@@H]2NCCN(C)C` (some centres unmarked) [Compound 36, 17-(2-Dimethylamino-ethylamino)-2-methoxy-13-methyl-7,8,9,11,12,13,14,15,16,17-decahydro-6H-cyclopenta[a]phenanthren-3-ol], for which the IC50 in the assay with MCF-7 cells (setting [4]) is 3.25 µM.
